Patent US20090298882A1, “THIOXOISOINDOLINE COMPOUNDS AND COMPOSITIONS COMPRISING AND METHODS OF USING THE SAME” (priority 2008, published 2009)

How the values were obtained:
[1] = tested on: Namalwa cells; test: Cell proliferation assay (3H-thymidine incorporation); type: cell-based; conditions: procedures substantially similar to Section 5.10
Description: Cell lines Namalwa, MUTZ-5, and UT-7 are obtained from the Deutsche Sammlung von Mikroorganismen und Zellkulturen GmbH (Braunschweig, Germany). The cell line KG-1 is obtained from the American Type Culture Collection (Manassas, Va., USA). Cell proliferation as indicated by ^3H-thymidine incorporation is measured in all cell lines as follows.
Cells are plated in 96-well plates at 6000 cells per well in media. The cells are pre-treated with compounds at about 100, 10, 1, 0.1, 0.01, 0.001, 0.0001 and 0 M in a final concentration of about 0.25% DMSO in triplicate at 37° C. in a humidified incubator at 5% CO2 for 72 hours. One microcurie of ^3H-thymidine (Amersham) is then added to each well, and cells are incubated again at 37 C in a humidified incubator at 5% CO2 for 6 hours. The cells are harvested onto UniFilter GF/C filter plates (Perkin Elmer) using a cell harvester (Tomtec), and the plates are allowed to dry overnight. Microscint 20 (Packard) (25 ÿl/well) is added, and plates are analyzed in TopCount NXT (Packard). Each well is counted for one minute. Percent inhibition of cell proliferation is calculated by averaging all triplicates and normalizing to the DMSO control (0% inhibition). Each compound is tested in each cell line in three separate experiments. Final IC50s are calculated using non-linear regression, sigmoidal dose-response, constraining the top to 100% and bottom to 0%, allowing variable slope. (GraphPad Prism v3.02).

[2] = tested on: TNFα; test: TNFα Inhibition Assay in PMBC (LPS-stimulated, ELISA); type: cell-based, human; conditions: LPS-stimulated PBMC; procedures substantially similar to Section 5.10
Description: Peripheral blood mononuclear cells (PBMC) from normal donors are obtained by Ficoll Hypaque (Pharmacia, Piscataway, N.J., USA) density centrifugation. Cells are cultured in RPMI 1640 (Life Technologies, Grand Island, N.Y., USA) supplemented with 10% AB+human serum (Gemini Bio-products, Woodland, Calif., USA), 2 mM L-glutamine, 100 U/ml penicillin, and 100 µg/ml streptomycin (Life Technologies).
PBMC (2×10^5 cells) are plated in 96-well flat-bottom Costar tissue culture plates (Corning, N.Y., USA) in triplicate. Cells are stimulated with LPS (from Salmonella abortus equi, Sigma cat. no. L-1887, St. Louis, Mo., USA) at 1 ng/ml final in the absence or presence of compounds. Compounds provided herein are dissolved in DMSO (Sigma) and further dilutions are done in culture medium immediately before use. The final DMSO concentration in all assays can be about 0.25%. Compounds are added to cells 1 hour before LPS stimulation. Cells are then incubated for 18-20 hours at 37° C. in 5% CO2, and supernatants are then collected, diluted with culture medium and assayed for TNF levels by ELISA (Endogen, Boston, Mass., USA). IC50s are calculated using non-linear regression, sigmoidal dose-response, constraining the top to 100% and bottom to 0%, allowing variable slope (GraphPad Prism v3.02).

[3] = tested on: IL-2; test: IL-2 production by T cells (anti-CD3 stimulated, ELISA); type: cell-based, human; conditions: procedures substantially similar to Section 5.10
Description: PBMC are depleted of adherent monocytes by placing 1×10^8 PBMC in 10 ml complete medium (RPMI 1640 supplemented with 10% heat-inactivated fetal bovine serum, 2 mM L-glutamine, 100 U/ml penicillin, and 100 µg/ml streptomycin) per 10 cm tissue culture dish, in 37 C, 5% CO2 incubator for 30-60 minutes. The dish is rinsed with medium to remove all non-adherent PBMC. T cells are purified by negative selection using the following antibody (Pharmingen) and Dynabead (Dynal) mixture for every 1×10^8 non-adherent PBMC: 0.3 ml Sheep anti-mouse IgG beads, 15 1 anti-CD16, 15 1 anti-CD33, 15 1 anti-CD56, 0.23 ml anti-CD19 beads, 0.23 ml anti-HLA class II beads, and 56 1 anti-CD14 beads. The cells and bead/antibody mixture is rotated end-over-end for 30-60 minutes at 4 C. Purified T cells are removed from beads using a Dynal magnet. Typical yield is about 50% T cells, 87-95% CD3^+ by flow cytometry.
Tissue culture 96-well flat-bottom plates are coated with anti-CD3 antibody OKT3 at 5 μg/ml in PBS, 100 μl per well, incubated at 37° C. for 3-6 hours, then washed four times with complete medium 100 μl/well just before T cells are added. Compounds are diluted to 20 times of final in a round bottom tissue culture 96-well plate. Final concentrations are about 10 μM to about 0.00064 μM. A 10 mM stock of compounds provided herein is diluted 1:50 in complete for the first 20× dilution of 200 μM in 2% DMSO and serially diluted 1:5 into 2% DMSO. Compound is added at 10 μl per 200 l culture, to give a final DMSO concentration of 0.1%. Cultures are incubated at 37° C., 5% CO2 for 2-3 days, and supernatants analyzed for IL-2 and MIP-3 by ELISA (R&D Systems). IL-2 and MIP-3 levels are normalized to the amount produced in the presence of an amount of a compound provided herein, and EC50s calculated using non-linear regression, sigmoidal dose-response, constraining the top to 100% and bottom to 0%, allowing variable slope (GraphPad Prism v3.02).

| Structure (SMILES) | ability to inhibit proliferation of Namalwa cells (activity range) [1] | ability to inhibit TNFα (activity range) [2] | ability to stimulate IL-2 (activity range) [3] | melting point [°C] |
| --- | --- | --- | --- | --- |
| Nc1cccc2c1CN(C1CCC(=S)NC1=O)C2=S (stereo not shown) [3-(4-Amino-1-thioxo-1,3-dihydro-isoindol-2-yl)-6-thioxo-piperidin-2-one] | μM-mM | μM-mM | μM-mM |  |
| O=C1NC(=S)CCC1N1Cc2c(cccc2[N+](=O)[O-])C1=S (stereo not shown) [3-(4-Nitro-1-thioxo-1,3-dihydro-isoindol-2-yl)-6-thioxo-piperidin-2-one] | μM-mM | μM-mM | μM-mM | 248 to 250 |
| Nc1cccc2c1CN(C1CCC(=O)NC1=O)C2=S (stereo not shown) [3-(4-Amino-1-thioxo-1,3-dihydro-isoindol-2-yl)-piperidine-2,6-dione] | μM-mM | μM-mM | μM-mM |  |
